# Data taken from ChEMBL document CHEMBL3132756, “Synthesis, structureactivity relationships and stereochemical investigations of new tricyclic pyridazinone derivatives as potential STAT3 inhibitors” (Medchemcomm, 2013).
# The source made the active and inactive calls. No cut-off for these calls is given here.
# Assays:
# [1] = target: Signal transducer and activator of transcription 3 (Homo sapiens) (UniProt P40763); test: Inhibition of STAT3 (unknown origin) expressed in human HCT116 cells at 2 uM by dual luciferase assay; type: cell-based; conditions: HCT-116
# Signal transducer and activator of transcription 3 (Homo sapiens), sequence (P40763 whole entry, the tested form may be a part): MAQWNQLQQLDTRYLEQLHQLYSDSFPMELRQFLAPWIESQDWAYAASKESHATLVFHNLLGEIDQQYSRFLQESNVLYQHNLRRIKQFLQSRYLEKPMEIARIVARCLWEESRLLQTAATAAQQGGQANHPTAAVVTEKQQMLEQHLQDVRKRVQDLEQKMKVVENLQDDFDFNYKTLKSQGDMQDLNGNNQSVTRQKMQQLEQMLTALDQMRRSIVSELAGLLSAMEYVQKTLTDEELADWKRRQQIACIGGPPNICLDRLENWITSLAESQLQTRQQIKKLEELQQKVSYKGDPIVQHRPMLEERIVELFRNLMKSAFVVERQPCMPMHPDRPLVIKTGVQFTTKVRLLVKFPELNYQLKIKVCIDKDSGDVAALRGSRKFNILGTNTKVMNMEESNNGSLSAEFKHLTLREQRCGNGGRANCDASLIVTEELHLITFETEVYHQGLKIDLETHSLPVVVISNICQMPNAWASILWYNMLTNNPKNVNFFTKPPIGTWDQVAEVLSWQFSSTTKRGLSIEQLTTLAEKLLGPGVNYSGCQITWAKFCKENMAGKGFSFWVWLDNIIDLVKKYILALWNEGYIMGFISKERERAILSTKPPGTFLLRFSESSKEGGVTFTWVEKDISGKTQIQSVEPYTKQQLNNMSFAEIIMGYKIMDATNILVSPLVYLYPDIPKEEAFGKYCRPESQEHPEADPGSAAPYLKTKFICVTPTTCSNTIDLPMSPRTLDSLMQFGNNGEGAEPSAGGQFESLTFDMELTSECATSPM
# [2] = target: Signal transducer and activator of transcription 3 (Homo sapiens) (UniProt P40763); test: Inhibition of STAT3 (unknown origin) expressed in human HCT116 cells at 10 uM by dual luciferase assay relative to (+) enantiomer; type: cell-based; conditions: HCT-116
# [3] = target: Signal transducer and activator of transcription 3 (Homo sapiens) (UniProt P40763); test: Binding affinity to STAT3 SH2 domain (unknown origin) pre-incubated 15 mins before (FITC)-GpYLPQTV probe and measured after 90 mins by Alpha screen assay
Structure (SMILES),inhibition [1] [%],fold change (FC) [2],Activity [3]
CCCCCN1N=C2c3ccccc3CCC2CC1=O (stereo unspecified),22,,
O=C(O)CCCN1N=C2c3ccccc3CCC2CC1=O (stereo unspecified),8,,
CCOC(=O)CCN1N=C2c3ccccc3CCC2CC1=O (stereo unspecified),30,,
CCNC(=O)CCCN1N=C2c3ccccc3CCC2CC1=O (stereo unspecified),16,,
O=C1CC2CCc3ccccc3C2=NN1 (stereo unspecified),-6,,
CCOC(=O)CCCCN1N=C2c3ccccc3CCC2CC1=O (stereo unspecified),21,,
CCOC(=O)CN1N=C2c3ccccc3CCC2CC1=O (stereo unspecified),3,,
CCCCN1N=C2c3ccccc3CCC2CC1=O (stereo unspecified),-9,,
CCOC(=O)CCCN1N=C2c3ccccc3CC[C@H]2CC1=O,,2,
CCOC(=O)CCCn1nc2c(cc1=O)CCc1ccccc1-2,1,,
O=C1CC2CCc3ccccc3C2=NN1CCCc1nn[nH]n1 (stereo unspecified),-9,,
CCOC(=O)CCCN1N=C2c3cc(OC)cc(OC)c3CCC2CC1=O (stereo unspecified),23,,
C[C@H]1COC2=C1C(=O)C(=O)c1c2ccc2c1CCCC2(C)C,25,,
CCNCCCCN1N=C2c3ccccc3CCC2CC1=O (stereo unspecified),3,,
CCOC(=O)CCCN1N=C2c3ccc(Cl)cc3CCC2CC1=O (stereo unspecified),9,,
CCOC(=O)CCCCCCN1N=C2c3ccccc3CCC2CC1=O (stereo unspecified),22,,
CCOC(=O)CCCN1N=C2c3ccccc3CC2CC1=O (stereo unspecified),28,,
CCOC(=O)CCCN1N=C2c3ccccc3CCC2CC1=O (racemic),46,,inactive
CCOC(=O)CCCCCN1N=C2c3ccccc3CCC2CC1=O (stereo unspecified),25,,
O=C(O)CCN1N=C2c3ccccc3CCC2CC1=O (stereo unspecified),-2,,
